Patent US4595695A, “1'-ethoxycarbonyloxyethyl ester of valproic acid, its preparation and pharmaceutical compositions containing it” (Teva Pharmaceutical Industries Ltd., priority 1983, dated 1986)
Like-named read-outs stand apart in the source and are kept apart here.

What was measured:
[1] = physiological pH; cited from earlier work
[2] = combination therapy with other anti-epileptic drugs; cited from earlier work
animals = conditions: in vivo; cited from earlier work
rats = test: toxicity after oral administration to rats; assay type: in vivo, rat; conditions: 20 and 100 mg/kg
[3] = pharmacokinetic parameters of VPA in dogs after oral administration of the ester or DEPAKINE;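 on all read-outs here: comparator arm received VPA orally as the free acid rather than as the ester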; assay type: in vivo, dog; conditions: for ka, absorption rate constant / CL/F / AUC / Vd/F / k el / half-life / Tmax: VPA, 400 mg; for CL/F / AUC / Vd/F / k el / half-life / Tmax: dog, in vivo, po; for AUC: read-out: AUC, area under the plasma conc. vs. time curve (row head is drawing 3) (converted); for Vd/F: read-out: V; for k el: read-out: ke, elimination rate constant (converted); for half-life: read-out: t1/2 elimin. (converted); for Tmax: read-out: t max obs, observed time to reach peak plasma concentration (converted)
[4] = expected VPA plasma concentration after single oral administration of the ester to man; assay type: in vivo
From the text: Based on the prolonged absorption of VPA after administration of the ester, this new prodrug might be administered to epileptic patients twice or even once a day.

[5] = VPA plasma levels after oral administration of the ester to five dogs; assay type: in vivo, dog; set-up: key: --: Undetectable concentration of VPA
Method: Concentration of VPA after oral administration of the ester of this invention to five dogs are presented in the following Table I. Each plasma sample was assayed three times and the results presented in Table I are mean ±S.D. of these analyses.

[6] = stability of the ester in plasma in vitro; assay type: in vitro ADME
Method: (§1) The ester was quite stable at -20° C. or after HCl was added to the plasma mixture. […] All these half-life time calculations were done by assuming a first order linear kinetics of hydrolysis of the ester to valproic acid.

[7] = stability of the ester in 0.01 N HCl; assay type: physicochemical; conditions: room temperature, first order kinetics, read-out: stability half-life time in 0.01 N HCl (converted)
Method: as §1

[8] = oral; cited from earlier work

For CCCC(CCC)C(=O)O [VPA, di-n-propylacetic acid], the “ionization of carboxylic group” value [1] is given as “significantly ionized” and the “half life time in combination therapy” value [2] is given as “even shorter than in a single therapy”.
For CCCC(CCC)COC(=O)C(CCC)CCC [2-propylpentanol-di-n-propyl acetate], the toxicity to animals (animals) is given as “very toxic to animals”.
In the case of CCCC(CCC)C(=O)OC(C)OC(=O)OCC (stereo not drawn) [1'-ethoxycarbonyloxyethyl ester, 1'-ethoxycarbonyloxyethyl ester of valproic acid], the toxicity (rats) is reported as “did not show any toxicity”, the “ka, absorption rate constant” value ([3]; dog 1, oral) is reported as 0.015 min⁻¹ and the “ka, absorption rate constant” value ([3]; dog 2, oral) is reported as 0.02 min⁻¹. For the same compound, the “ka, absorption rate constant” value ([3]; dog 3, oral) was 0.02 min⁻¹, the “ka, absorption rate constant” value ([3]; dog 4, oral) was 0.01 min⁻¹ and the “ka, absorption rate constant” value ([3]; dog 5, oral) was 0.04 min⁻¹. It also gave a CL/F ([3]; dog 1) of 66.7 mL/min, an AUC ([3]; dog 1, oral) of 76800 ng·h/mL and a Vd/F ([3]; dog 1, oral) of 12.1 L. The k el ([3]; dog 1, oral) was 9.17e-05 s⁻¹, the half-life ([3]; dog 1, oral) was 2.1 h and the Tmax ([3]; dog 1, oral) was 2 h. It also gave a CL/F ([3]; dog 2) of 34.8 mL/min, an AUC ([3]; dog 2, oral) of 167000 ng·h/mL and a Vd/F ([3]; dog 2, oral) of 5.35 L. For the same compound, the k el ([3]; dog 2, oral) was 0.000108 s⁻¹, the half-life ([3]; dog 2, oral) was 1.78 h and the Tmax ([3]; dog 2, oral) was 1.4 h. For the same compound, the CL/F ([3]; dog 3) was 61.5 mL/min, the AUC ([3]; dog 3, oral) was 67700 ng·h/mL and the Vd/F ([3]; dog 3, oral) was 5.08 L. It also gave a k el ([3]; dog 3, oral) of 0.00202 s⁻¹, a half-life ([3]; dog 3, oral) of 0.95 h and a Tmax ([3]; dog 3, oral) of 1.17 h. The CL/F ([3]; dog 4) was 56.5 mL/min, the AUC ([3]; dog 4, oral) was 81200 ng·h/mL and the Vd/F ([3]; dog 4, oral) was 8.69 L. The k el ([3]; dog 4, oral) was 0.000108 s⁻¹, the half-life ([3]; dog 4, oral) was 1.78 h and the Tmax ([3]; dog 4, oral) was 2.5 h. For the same compound, the CL/F ([3]; dog 5) was 42.7 mL/min, the AUC ([3]; dog 5, oral) was 142000 ng·h/mL and the Vd/F ([3]; dog 5, oral) was 7.24 L. The Tmax ([3]; dog 5, oral) was 1.2 h, the “VPA plasma levels between 30 to 240 minutes” value ([3]; dogs, after ester administration) was “More or less constant plasma levels” and the “difference between the maximal and minimal steady state levels” value ([3]; dogs, between 30 to 240 minutes) was “less than a two-fold difference”. The “distribution and elimination parameters of VPA compared between the two drug products” value ([3]; dogs, exception: V in dog number 1) was “not significantly different”, the “absorption rate of VPA compared with free acid” value ([3]; dogs, oral, ester versus free acid) was “two to five times slower” and the “expected VPA concentration profile in man” value [4] was “prolonged pseudo steady state concentration”. The VPA plasma levels ([5]; dog 1, 15 min) was “--”, the VPA plasma levels ([5]; dog 1, 660 min) was “--” and the VPA plasma levels ([5]; dog 1, 720 min) was “--”. For the same compound, the VPA plasma levels ([5]; dog 1, 780 min) was “--”, the VPA plasma levels ([5]; dog 1, 840 min) was “--” and the VPA plasma levels ([5]; dog 1, 900 min) was “--”. The VPA plasma levels ([5]; dog 2, 660 min) was “--”, the VPA plasma levels ([5]; dog 2, 840 min) was “--” and the VPA plasma levels ([5]; dog 2, 900 min) was “--”. For the same compound, the VPA plasma levels ([5]; dog 3, 720 min) was “--”, the VPA plasma levels ([5]; dog 3, 780 min) was “--” and the VPA plasma levels ([5]; dog 3, 840 min) was “--”. The VPA plasma levels ([5]; dog 3, 900 min) was “--”, the VPA plasma levels ([5]; dog 4, 45 min) was “--” and the VPA plasma levels ([5]; dog 4, 60 min) was “--”. The VPA plasma levels ([5]; dog 4, 75 min) was “--”, the VPA plasma levels ([5]; dog 4, 210 min) was “--” and the VPA plasma levels ([5]; dog 4, 660 min) was “--”. The VPA plasma levels ([5]; dog 4, 720 min) was “--”, the VPA plasma levels ([5]; dog 4, 780 min) was “--” and the VPA plasma levels ([5]; dog 4, 840 min) was “--”. The VPA plasma levels ([5]; dog 4, 900 min) was “--”, the VPA plasma levels ([5]; dog 5, 30 min) was “--” and the VPA plasma levels ([5]; dog 5, 660 min) was “--”. The VPA plasma levels ([5]; dog 5, 780 min) was “--”, the VPA plasma levels ([5]; dog 5, 840 min) was “--” and the VPA plasma levels ([5]; dog 5, 900 min) was “--”. For the same compound, the “stability at -20° C. or after HCl was added to the plasma mixture” value ([6]; -20° C. or HCl added to plasma mixture) was “quite stable”, the “transformation to valproic acid in plasma” value ([6]; plasma in vitro, room temperature) was “transformed to valproic acid” and the half-life ([6]; plasma in vitro, room temperature, first order kinetics) was 2.23 h. For the same compound, the half-life [7] was 32.4 h.
For CCCC(CCC)C(N)=O [VPD, Valpromide-dipropylacetamide], the “absorption compared with VPA” value [8] is given as “slower absorption than VPA” and the bioavailability [8] is given as “low bioavailability”.
